Entries after “also recorded” stand apart in the source; their conditions may differ. Like-named read-outs stand apart in the source and are kept apart here. Values belong to the compound of their own block, whether it stands above or below them.
Tested on: Zellen eines ösophago-gastralen Karzinoms oder eines Magenkarzinoms
Assay: Cell viability dose-response of single FLOT components on in vitro cultured patient tumour cells (Presto Blue)
Assay type: cell-based
Source text: Die Konzentration der mindestens einen Komponente der Testzusammensetzung kann auf Basis von empirisch ermittelten Werten festgelegt werden. Zur empirischen Bestimmung von geeigneten Komponentenkonzentrationen für die Testzusammensetzung werden zunächst Zellen eines ösophago-gastralen Karzinoms, insbesondere eines Magenkarzinoms, von mehreren Patienten entnommen und diese Zellen jeweils separat bei physiologischen Bedingungen in vitro kultiviert. Dabei kann die Patientenkultur auf mehrere Vertiefungen einer Zellkulturplatte aufgeteilt werden. Die kultivierten Patientenzellen werden anschließend jeweils mit einer der Komponenten in jeweils vorgegebenen Konzentrationen in Kontakt gebracht und inkubiert. Das heißt, die die Patientenkulturen werden mit den jeweiligen Komponentenkonzentrationen behandelt. Da sich für Leucovorin selbst keine Wirkung auf die Zellen nachweisen lässt, kann Leucovorin als Komponente zur Bestimmung der Komponentenkonzentration ausgenommen werden. Die Behandlung kann in zwei Vorgehensvarianten unterschieden werden. Gemäß einer ersten Variante erfolgt die Behandlung einer Patientenkultur mit den Komponentenkonzentrationen der betreffenden Komponente beginnend mit der niedrigsten Komponentenkonzentration, wobei die Komponentenkonzentration jeweils nach einer vorgegebenen Inkubationszeit schrittweise oder kontinuierlich erhöht wird. Die Zellviabilität wird dabei nach vorgegebenen Inkubationszeiten bestimmt. Gemäß einer zweiten Variante, werden Patientenzellen enthaltene Vertiefungen jeweils mit einer konkreten Konzentration der jeweiligen Komponente behandelt und inkubiert, wobei die Zellviabilitäten nach einer vorgegebenen Inkubationszeit bestimmt werden. Auf diese Weise können mehrere Komponentenkonzentrationen verschiedener Konzentrationen gleichzeitig getestet werden.
Für jede Komponente 5-Fluorouracil, Oxaliplatin und Docetaxel, kann eine patientenspezifische mittlere inhibitorische Konzentration IC50 (IC50F, IC50O, IC50T,) ermittelt werden. Die IC50-Werte geben an, ab welcher Konzentration der Komponenten eine halbmaximale Wachstumshemmung der Patientenzellen erreicht ist. Anschließend wird aus den Werten der ermittelten patientenspezifischen mittleren inhibitorischen Konzentrationen (IC50F, IC50O, IC50T) für jede Komponente (5-Fluorouracil, Oxaliplatin und Docetaxel, (F, O, T)) ein inhibitorischer Konzentrations-Mittelwert (mIC50F, mIC50O, mIC50T) bestimmt. Der inhibitorische Konzentrations-Mittelwert mIC50 ist der Mittelwert aus der Gesamtheit der IC50-Werte einer der Komponenten (F, O, T). […]

Compound: Nc1nc2c(c(=O)[nH]1)N(C=O)C(CNc1ccc(C(=O)N[C@@H](CCC(=O)O)C(=O)O)cc1)CN2 (stereo partly shown) [Leucovorin]
Effekt auf die Zellviabilität der Patientenkulturen (single-agent tests): keine Wirkung; also recorded: keinen Effekt

Compound: O=c1[nH]cc(F)c(=O)[nH]1 [5-FU, 5-Fluorouracil]
IC50 (144 h, read-out: 5-FU-spezifische mittlere halbmaximale inhibitorische Konzentration mIC50F): 10.3 µM

IC50 (cell cultures of 13 patients, same procedure as for 5-FU, read-out: Docetaxelspezifische mittlere halbmaximale inhibitorische Konzentration mIC50T): 0.0012 µM
Compound: CC(=O)O[C@@]12CO[C@@H]1C[C@H](O)[C@@]1(C)C(=O)[C@H](O)C3=C(C)[C@@H](OC(=O)[C@H](O)[C@@H](NC(=O)OC(C)(C)C)c4ccccc4)C[C@@](O)([C@@H](OC(=O)c4ccccc4)[C@H]21)C3(C)C [Docetaxel]

Compound: O=C1[O][Pt]2([NH][C@@H]3CCCC[C@H]3[NH]2)[O]C1=O [Oxaliplatin]
IC50 (cell cultures of 13 patients, same procedure as for 5-FU, read-out: Oxaliplatin-spezifische mittlere halbmaximale inhibitorische Konzentration mIC50O): 10.7 µM

Reference: patent publication EP4382907A1, “METHOD FOR PREDICTING A PATIENT-SPECIFIC RESPONSE TO THE FLOT CHEMOTHERAPY SCHEME” (Technische Universität Dresden, priority 2022, dated 2024)
